In US11498923B2 (Merck Sharp & Dohme Corp., priority 2017, dated 2022):

Molecular target: T1, human A2a receptor (Homo sapiens, UniProt P29274)
T1 construct: purchased Perkin-Elmer RBHA2AM400UA; host or cells: HEK293 cells, used as a membrane preparation
Experiment: A2a receptor competition binding assay (Scintillation Proximity)
Conditions: membranes from HEK293 cells expressing human A2a receptor; 0.5 nM tritiated ligand; Cheng-Prusoff; read-out: A2a Ki
Procedure, shortened: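 Ki values were obtained with the Cheng-Prusoff equation from competition curves against 0.5 nM tritiated antagonist, scintillation proximity counting after 1 h room-temperature incubation. Receptor came from HEK293 membranes pretreated with adenosine deaminase; compound final range 3000–0.15 nM, buffer Ca/Mg-free PBS with 10 mM MgCl2.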

T1 sequence (P29274 whole entry): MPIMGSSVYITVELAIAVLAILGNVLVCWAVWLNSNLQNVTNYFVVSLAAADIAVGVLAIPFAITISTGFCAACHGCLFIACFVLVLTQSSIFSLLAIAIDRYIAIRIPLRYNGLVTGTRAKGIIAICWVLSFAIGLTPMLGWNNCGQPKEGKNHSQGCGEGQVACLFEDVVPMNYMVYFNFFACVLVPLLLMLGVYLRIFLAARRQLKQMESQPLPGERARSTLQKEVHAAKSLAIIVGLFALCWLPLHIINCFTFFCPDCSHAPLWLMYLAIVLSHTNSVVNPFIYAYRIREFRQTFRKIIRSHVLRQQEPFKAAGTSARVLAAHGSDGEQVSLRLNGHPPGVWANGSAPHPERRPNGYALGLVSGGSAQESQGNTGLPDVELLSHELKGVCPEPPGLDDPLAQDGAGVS

Row | SMILES | Ki [nM]
1 | CCN1CCN(Cc2cn3c(N)nc4c(F)cccc4c3n2)CC1 [Ex-112, 2-((4-ethylpiperazin-1-yl)methyl)-7-fluoroimidazo[1,2-c]quinazolin-5-amine] | 520
2 | Nc1nc2c(F)cccc2c2nc(CN3CCN(CCc4ccccc4)CC3)cn12 [Ex-113, 7-fluoro-2-((4-phenethylpiperazin-1-yl)methyl)imidazo-[1,2-c]quinazolin-5-amine] | 76
3 | Nc1nc2c(F)cccc2c2nc(CN3CCC(Cc4ccccc4)CC3)cn12 [Ex-114, 2-((4-benzylpiperidin-1-yl)methyl)-7-fluoroimidazo[1,2-c]quinazolin-5-amine] | 130
4 | Nc1nc2c(F)cccc2c2nc(CN3CCOCC3)cn12 [Ex-115, 7-fluoro-2-(morpholinomethyl) imidazo[1,2-c] quinazolin-5-amine] | 380
5 | Nc1nc2ccccc2c2nc(CN3CCN(c4ccc(F)cc4F)CC3)cn12 [Ex-116, 2-((4-(2,4-difluorophenyl)piperazin-1-yl)methyl) imidazo[1,2-c] quinazolin-5-amine] | 1000
6 | Nc1nc2c(F)cccc2c2nc(CN3CCOc4ccccc43)cn12 [Ex-117, 2-((2,3-dihydro-4H-benzo[b][1,4]oxazin-4-yl)methyl)-7-fluoroimidazo[1,2-c]quinazolin-5-amine] | 4
7 | Nc1nc2c(F)cccc2c2nc(CN3CCOc4cccnc43)cn12 [Ex-118, 2-((2,3-dihydro-4H-pyrido[3,2-b][1,4]oxazin-4-yl)methyl)-7-fluoroimidazo[1,2-c]quinazolin-5-amine] | 3.9
8 | Nc1nc2c(F)cccc2c2nc(CN3CCCN(c4ccccn4)CC3)cn12 [Ex-119, 7-fluoro-2-((4-(pyridin-2-yl)-1,4-diazepan-1-yl)methyl)imidazo[1,2-c]quinazolin-5-amine] | 210
9 | COc1cccc2c1nc(N)n1cc(CN3CCc4cccnc4C3)nc21 [Ex-120, 2-((5,8-dihydro-1,7-naphthyridin-7(6H)-yl)methyl)-7-methoxyimidazo[1,2-c]quinazolin-5-amine] | 4.2
10 | COc1cccc2c1nc(N)n1cc(CN3CCc4ccccc4C3)nc21 [Ex-121, 2-((3,4-dihydroisoquinolin-2(1H)-yl)methyl)-7-methoxyimidazo[1,2-c]quinazolin-5-amine] | 3.7
11 | COc1cccc2c1nc(N)n1cc(CN3Cc4cccnc4C3)nc21 [Ex-122, 2-((5,7-dihydro-6H-pyrrolo[3,4-b]pyridin-6-yl)methyl)-7-methoxyimidazo[1,2-c]quinazolin-5-amine] | 11
12 | COc1cccc2c1nc(N)n1cc(CN3Cc4ccc(F)cc4C3)nc21 [Ex-123, 2-((5-fluoroisoindolin-2-yl)methyl)-7-methoxyimidazo[1,2-c]quinazolin-5-amine] | 9.2
13 | Nc1nc2c(F)cccc2c2nc(CN3Cc4ccc(F)cc4C3)cn12 [Ex-124, 7-fluoro-2-((5-fluoroisoindolin-2-yl)methyl)imidazo[1,2-c]quinazolin-5-amine] | 18
14 | Nc1nc2c(F)cccc2c2nc(CN3CCCc4cc(Br)ccc43)cn12 [Ex-125, 2-((6-bromo-3,4-dihydroquinolin-1(2H)-yl)methyl)-7-fluoroimidazo[1,2-c]quinazolin-5-amine] | 8.1
15 | Nc1nc2c(F)cccc2c2nc(CN3Cc4ccc(Br)cc4C3)cn12 [Ex-126, 2-((5-bromoisoindolin-2-yl)methyl)-7-fluoroimidazo[1,2-c]quinazolin-5-amine] | 38
16 | Nc1nc2c(F)cccc2c2nc(CN3CCc4cc(NC(=O)c5ccccn5)ccc4C3)cn12 [Ex-127, N-(2-((5-amino-7-fluoroimidazo[1,2-c]quinazolin-2-yl)methyl)-1,2,3,4-tetrahydroisoquinolin-6-yl)picolinamide] | 64
17 | CC(=O)Nc1ccc2c(c1)CCN(Cc1cn3c(N)nc4c(F)cccc4c3n1)C2 [Ex-128, N-(2-((5-amino-7-fluoroimidazo[1,2-c]quinazolin-2-yl)methyl)-1,2,3,4-tetrahydroisoquinolin-6-yl)acetamide] | 97
18 | Nc1nc2c(F)cccc2c2nc(CN3CCc4cc(CC(=O)Nc5ccccn5)ccc4C3)cn12 [Ex-129, 2-(2-((5-amino-7-fluoroimidazo[1,2-c]quinazolin-2-yl)methyl)-1,2,3,4-tetrahydroisoquinolin-6-yl)-N-(pyridin-2-yl)acetamide] | 51
19 | Nc1nc2c(F)cccc2c2nc(CN3CCc4cc(-c5ccc(F)c(F)c5)ccc4C3)cn12 [Ex-130, 2-((6-(3,4-difluorophenyl)-3,4-dihydroisoquinolin-2(1H)-yl)methyl)-7-fluoroimidazo[1,2-c]quinazolin-5-amine] | 46
20 | Nc1nc2c(F)cccc2c2nc(CN3CCc4ccc(CC(=O)Nc5ccccn5)cc4C3)cn12 [Ex-131, 2-(2-((5-amino-7-fluoroimidazo[1,2-c]quinazolin-2-yl)methyl)-1,2,3,4-tetrahydroisoquinolin-7-yl)-N-(pyridin-2-yl)acetamide] | 8.4
21 | COc1cccc2c1nc(N)n1cc(CN3CCN4CCCC[C@@H]4C3)nc21 [Ex-132, (R)-7-methoxy-2-((octahydro-2H-pyrido[1,2-a]pyrazin-2-yl)methyl)imidazo[1,2-c]quinazolin-5-amine] | 150
22 | COc1cccc2c1nc(N)n1cc(CN3CCc4ccc(-c5cncnc5)cc4C3)nc21 [Ex-134] | 7.9

Row | SMILES | Ki [nM]
23 | COc1cccc2c1nc(N)n1cc(CN3CCc4ccc(-c5ccc(F)c(F)c5)cc4C3)nc21 [Ex-135, 2-((7-(3,4-difluorophenyl)-3,4-dihydroisoquinolin-2(1H)-yl)methyl)-7-methoxyimidazo[1,2-c]quinazolin-5-amine] | 10.4
24 | Nc1nc2c(F)cccc2c2nc(CN3CCN(C(=O)Cc4ccccn4)c4ccccc43)cn12 [Ex-136, 1-(4-((5-amino-7-fluoroimidazo[1,2-c]quinazolin-2-yl)methyl)-3,4-dihydroquinoxalin-1(2H)-yl)-2-(pyridin-2-yl)ethan-1-one] | 12
25 | COc1cccc2c1nc(N)n1cc(CCN3Cc4cccnc4C3)nc21 [Ex-137, 2-(2-(5,7-dihydro-6H-pyrrolo[3,4-b]pyridin-6-yl)ethyl)-7-methoxyimidazo[1,2-c]quinazolin-5-amine] | 13.1
26 | Nc1nc2c(F)cccc2c2nc(CCN3CCN(c4ccccn4)CC3)cn12 [Ex-138] | 28
27 | Nc1nc2c(Br)cccc2c2nc(CNCc3ccccc3)cn12 [Ex-140, 2-((benzylamino)methyl)-7-bromoimidazo[1,2-c]quinazolin-5-amine] | 9.1
28 | Nc1nc2c(Br)cccc2c2nc(CNCc3cccnc3)cn12 [Ex-141, 7-bromo-2-(((pyridin-3-ylmethyl)amino)methyl) imidazo[1,2-c]quinazolin-5-amine] | 9.5
29 | Nc1nc2c(F)cccc2c2nc(CNCc3ccc(F)cc3)cn12 [Ex-142] | 130
30 | COc1cccc2c1nc(N)n1cc(CNCc3ccccc3)nc21 [Ex-143, 2-((benzylamino)-methyl)-7-methoxy-imidazo[1,2-c]-quinazolin-5-amine] | 4
31 | COc1cccc2c1nc(N)n1cc(CN3CC(c4cccc(Cl)c4)C3)nc21 [Ex-144, 2-((3-(3-chlorophenyl)azetidin-1-yl)methyl)-7-methoxyimidazo[1,2-c]quinazolin-5-amine] | 13
32 | COc1cccc2c1nc(N)n1cc(CNCc3cccnc3)nc21 [Ex-145, 7-methoxy-2-(((pyridin-3-ylmethyl)amino)methyl)imidazo [1,2-c]quinazolin-5-amine] | 28
33 | Nc1nc2c(F)cccc2c2nc(COc3ccccc3)cn12 [Ex-146, 7-fluoro-2-(phenoxymethyl)imidazo[1,2-c]quinazolin-5-amine] | 33
34 | COc1cccc(OCc2cn3c(N)nc4c(F)cccc4c3n2)c1 [Ex-147] | 54
35 | CCn1cc(-c2cccc3c2nc(N)n2cc(Cc4ccccc4)nc32)cn1 [Ex-150, 2-benzyl-7-(1-ethyl-1H-pyrazol-4-yl)imidazo[1,2-c]quinazolin-5-amine] | 760
36 | CCn1cc(-c2cccc3c2nc(N)n2cc(CN(C)Cc4cccc(Cl)c4)nc32)cn1 [Ex-151, 2-(((3-chlorobenzyl)-(methyl)amino)-methyl)-7-(1-ethyl-1H-pyrazol-4-yl)imidazo[1,2-c]-quinazolin-5-amine] | > 2200
37 | Cc1noc(C)c1-c1cccc2c1nc(N)n1cc(Cc3ccccc3)nc21 [Ex-152] | 35
38 | Cc1noc(C)c1-c1cccc2c1nc(N)n1cc(CNCc3ccccc3)nc21 [Ex-153, 2-((benzylamino)-methyl)-7-(3,5-dimethyl-isoxazol-4-yl)-imidazo[1,2-c]-quinazolin-5-amine] | > 2200
39 | Cc1noc(C)c1-c1cccc2c1nc(N)n1cc(Cc3ccc(F)cc3)nc21 [Ex-154, 7-(3,5-dimethylisoxazol-4-yl)-2-(4-fluorobenzyl)imidazo[1,2-c]quinazolin-5-amine] | 48
40 | Cc1cc(Cc2cn3c(N)nc4c(-c5c(C)noc5C)cccc4c3n2)ccn1 [Ex-155, 7-(3,5-dimethylisoxazol-4-yl)-2-((2-methylpyridin-4-yl)methyl)imidazo[1,2-c]quinazolin-5-amine] | 130
41 | Nc1nc2c(-c3cnoc3)cccc2c2nc(Cc3ccccc3)cn12 [Ex-156, 2-benzyl-7-(isoxazol-4-yl)imidazo[1,2-c]quinazolin-5-amine] | 28
42 | COc1cccc2c1nc(N)n1cc(C(=O)NCc3cccc4cccnc34)nc21 [Ex-157, 5-amino-7-methoxy-N-(quinolin-8-ylmethyl)imidazo[1,2-c]quinazoline-2-carboxamide] | 1.5
43 | Nc1nc2ccccc2c2nc(C(=O)NCc3ccc(F)cc3F)cn12 [Ex-158, 5-amino-N-(2,4-difluorobenzyl)imidazo[1,2-c]quinazoline-2-carboxamide] | 33.9
44 | COc1cccc2c1nc(N)n1cc(C(=O)N(C)Cc3cccc4cccnc34)nc21 [Ex-159, 5-amino-7-methoxy-N-methyl-N-(quinolin-8-ylmethyl)imidazo[1,2-c]quinazoline-2-carboxamide] | 5.9
